Test results: article PMC5220248 (Angewandte Chemie (International ed. in English), 2016)
Residues, ends and D or L forms follow the SMILES beside them.

Assays:
[1] = target: HIV Rev protein (Human immunodeficiency virus type 1 group M subtype B, UniProt P04618); assay type: binding
[2] = human, serum

C[C@@H]1NC(=O)[C@H](C)NC(=O)[C@@H]2CCCN2C(=O)[C@H](Cc2ccc(O)cc2)NC(=O)[C@H](CCCNC(=N)N)NC(=O)[C@H](Cc2ccc(O)cc2)NC(=O)[C@H](CO)NC1=O [cRBP, cyclo-YPAASYR] (cyclo(AASYRYP)) gave an IC50 [1] of 28 ± 5 nM and a half-life [2] of about 30 h.
